pIC50: −log10 of the molar value. “Also recorded” adds a separate entry of the source. Where two headings read alike, the source gives them in different places.
What was measured:
[1] = target: T1, recombinant human CK2a1 kinase (Homo sapiens, UniProt P68400); assay: In vitro kinase assay (PhosphoSens, Cysteine-Sox sensor peptide); type: biochemical; details: FIG. 4A; for pIC50: FIG. 16, 1 mM ATP, read-out: CK2 IC50
T1 construct: purchased Thermo Fisher PV3248
Experimental: Kinase assays. In vitro kinase assays were run using the Cysteine-Sox-Kinase Sensor AQT0696, 96 assay Kit (AssayQuant Tech, CSKS-AQT0696). […] Slopes corresponding to linear reaction rates were obtained for each compound concentration (RFU/sec), normalized to DMSO controls, and IC50 values were determined by applying the dose response non-linear regression model in GraphPad Prism. For kinase assays using postmortem brain tissue lysates, brain tissues were homogenized at 4° C. using a Bullet Blender (Next Advance) in kinase buffer (20 mM HEPES 7.4 pH, 150 mM NaCl, 1% Triton-X, 1 mM EDTA, 1 mM EGTA plus Halt Protease and Phosphase Inhibitor Cocktail). After sonication and clarification, protein concentration was measured by BCA Assay. CK2 activity was measured as described above, except lysates were used instead of purified kinase at 2 μL/well (˜0.3-0.4 ug protein per reaction). […] Patient lysates were individually preincubated with 20 μM CX4945 for 30 min at room temperature before initiating kinase kinetic assays.

[2] = system: IL-6, IL-8, TNF-α and MCP-1 in primary human cerebellar astrocytes (HCA); assay: Flow-cytometry assay of intracellular cytokine production in IL1-β-treated astrocytes; type: cell-based; details: for reducing inflammation of primary astrocytes and iPSC-derived astrocytes: 20 μM compound, 10 ng/mL IL1-β, 6 hours; for suppression of IL1-β-induced IL-6, IL-8, TNF-α and MCP-1 cytokine upregulation: 20 μM, human astrocytes; for summary of SAR data, activity class: at 20 μM, FIG. 5A
Experimental: Flow cytometry. For each well of HCA in a 6-well plate, 2 mL of fresh media with GolgiPLUG (BD #555029, 1:1000) and GolgiSTOP (BD #554724, 1:1000) with 20 μM compound or vehicle (DMSO) and IL1-β 10 ng/mL or DPBS was added. The cells were incubated for 5 h at 37° C. Cells were collected with TrypLE and plated into a 96-well V-bottom plate for staining. The plate was centrifuged for 5 min, 1300 rpm, 4° C. to pellet cells, which were subsequently resuspended in 100 μl DPBS with 1 μl Zombie Violet (Biolegend #423113) and 5 μl Human Trustain FC block (Biolegend #422302) per well for 15 min at room temperature in the dark. The plate was centrifuged, supernatant was aspirated, and the cells were washed with 100 μl/well DPBS. Cells were fixed with 100 μl/well of Cytofix/Cytoperm (BD) for 20 min at 4° C. The plate was centrifuged, supernatant was aspirated, and cells were resuspended in 100 μl Permwash (BD) and incubated for 15 min at 4° C. The plate was centrifuged, supernatant was aspirated, and cells were incubated with 100 μl/well of Ab mix or isotype mix in Permwash (see below) for 20 min at 4° C., followed by centrifugation and 2× PermWash washes. The cells were resuspended in 100 ul DPBS and transferred to FACS tubes containing 200 ul of PBS (total volume per tube 300 μl) for analysis on FACS Analyzers (LSRII or Fortessa).
Primary human cerebellar astrocytes (HCA) were co-treated with 20 μM of each compound or vehicle (DMSO), 10 ng/mL IL1-β, and a protein transport inhibitor for 6 hours, and then processed for intracellular staining of pro-inflammatory cytokines IL-6, IL-8, TNF-α, and MCP-1. […]; in vitro IC50 values are for CK2 as reported in the literature).

[3] = system: IL6 and IL8 expression in astrocytes; assay: Activation assay, ddPCR of cytokine expression in IL1-β-activated astrocytes; type: cell-based, human; details: for expression of IL6 and IL8 in IL1-β-activated astrocytes: 5 h treatment
Experimental: Activation assays and ddPCR. HCA or H1-derived astrocytes were treated with vehicle (DMSO) or 20 μM compound and stimulated with IL1-B 10 ng/mL for 5 h. Cells were scraped into RNA-Bee and total RNA was purified using the Direct-zol RNA kit (Zymo Research). RNA concentration was measured using Nanodrop and RNA was reverse transcribed into cDNA using the High Capacity cDNA Reverse Transcriptase Kit (Applied Biosystems). Reaction mixes consisting of TaqMan FAM probe (IL6, IL8, CSNK2A1, CSNK2A2), control TaqMan ACTB-VIC probe (TFS 4326315E), ddPCR Supermix for Probes (Bio-Rad 186-3024), and cDNA were formed into oil droplets using the QX200 Droplet Generator. After amplification (Bio-Rad C1000 Touch Thermal Cycler) according to manufacturer's instructions, the plate was read in the QX200 Droplet Reader.

[4] = target: CK2 (Homo sapiens, UniProt P68400); details: cited from earlier work; for pIC50: in vitro values as reported in the literature
[5] = target: T2, CK2α1 (Homo sapiens, UniProt P68400); assay: Thermal shift assay with Western blotting in astrocyte extracts; type: binding; details: extracts of iPSC-derived astrocytes
T2 construct: endogenous in cells
Experimental: Thermal shift assay and TPP. […] Protein concentration was determined by BCA assay (Bio-Rad), and lysates were diluted to 2 mg/mL. […] Reactions were incubated at rt for 30 min, after which each treated extract was divided into 10 aliquots of 95 μl in PCR strip tubes and stored on ice. […] A small aliquot (5 μl) of supernatant was saved for Western blotting, and the rest was snap frozen at −80 C and submitted for LC-MS/MS.

Chain of CK2 (P68400 whole entry): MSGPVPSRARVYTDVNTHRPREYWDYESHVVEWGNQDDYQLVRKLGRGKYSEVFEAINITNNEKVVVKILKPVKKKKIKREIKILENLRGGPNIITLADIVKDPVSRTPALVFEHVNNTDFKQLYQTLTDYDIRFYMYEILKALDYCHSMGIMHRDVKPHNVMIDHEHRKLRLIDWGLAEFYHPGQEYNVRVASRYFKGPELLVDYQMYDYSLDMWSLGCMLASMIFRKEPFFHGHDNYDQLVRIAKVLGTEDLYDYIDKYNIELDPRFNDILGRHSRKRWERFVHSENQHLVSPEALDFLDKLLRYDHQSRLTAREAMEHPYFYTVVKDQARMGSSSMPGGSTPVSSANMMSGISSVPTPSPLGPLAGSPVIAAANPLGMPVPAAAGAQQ
T1 sequence (P68400 whole entry): as above
T2 sequence (P68400 whole entry): as above

In the case of `O=c1cc(-c2ccccc2)oc2cc(O)cc(O)c12` [chrysin], the “inhibition of CK2a1 in vitro (activity class in words)” value (“inhibition of CK2a1 in vitro” below) [1] was “medium active”, the pIC50 [1] was 5.42 to 5.74 and the “reducing inflammation of primary astrocytes and iPSC-derived astrocytes” value (from here on “reducing inflammation”) [2] was “reduces the anti-inflammatory activity”. The “suppression of IL1-β-induced IL-6, IL-8, TNF-α and MCP-1 cytokine upregulation” value (from here on “suppression”) [2] was “intermediate activity” and the “summary of SAR data, activity class” value [2] was “intermediately active”.

In the case of `COc1cc([C@@H]2CC(=O)c3c(O)cc(O)cc3O2)ccc1O` [dCHR, homoeriodictyol], the “inhibition of CK2a1 in vitro” value [1] was “inactive”, the “reducing inflammation” value [2] was “inactive” and the “suppression” value [2] was “completely inactive”. For the same compound, the “summary of SAR data, activity class” value [2] was “inactive” and the “expression of IL6 and IL8 in IL1-β-activated astrocytes” value [3] was “no effect”.

In the case of `O=c1cc(-c2ccc(O)cc2)oc2cc(O[C@H]3CC(CO)[C@H](O)[C@@H](O)C3O)cc(O)c12` (stereo partly shown) [glycosylated apigenin], the pIC50 ([4]; Table 3) is given as under 4.40.

In the case of `O=c1cc(-c2ccc(O)cc2)oc2cc(O)c(O)c(O)c12` [scutellarein], the pIC50 [1] was 5.42 to 5.74.

In the case of `O=c1c(O)c(-c2ccc(O)c(O)c2)oc2cc(O)ccc12` [fisetin], the pIC50 ([4]; Table 2) is given as 6.46.

With `COc1ccc(-c2cc(=O)c3c(O)cc(O)cc3o2)cc1O` [diosmetin] the “reducing inflammation” value [2] was “reduces the anti-inflammatory activity”.

`COc1cc(O)c2c(=O)c(O)c(-c3ccc(O)c(O)c3)oc2c1` [Rhamnetin] gave a pIC50 [1] of 5.21.

In the case of `O=C1C[C@@H](c2ccc(O)cc2)Oc2cc(O)cc(O)c21` [naringenin], the “inhibition of CK2a1 in vitro” value [1] is listed as “inactive”, the pIC50 [1] is listed as under 5.00 and the pIC50 ([4]; Table 3) is listed as under 4.40. The “fold higher IC50 than apigenin” value ([4]; literature) was over 50 fold, the “reducing inflammation” value [2] was “inactive” and the “suppression” value ([2]; listed as NAR) was “does not block; also recorded: completely inactive”. The “summary of SAR data, activity class” value [2] was “inactive” and the “binding / thermal stabilization of CK2a” value [5] was “do not”.

With `COc1ccc(-c2cc(=O)c3c(OC)cc(OC)cc3o2)cc1` [TMF, 4′,5,7-trimethoxyflavone] the “inhibition of CK2a1 in vitro” value [1] was “active”, the “reducing inflammation” value [2] was “active” and the “suppression” value [2] was “strong suppressive activity”. The “summary of SAR data, activity class” value [2] was “active”, the “expression of IL6 and IL8 in IL1-β-activated astrocytes” value [3] was “successfully blocked” and the “dose dependence of anti-inflammatory effects” value ([3]; astrocytes and microglia, FIG. 1D, FIG. 2C) was “dose-dependent”. The “binding / thermal stabilization of CK2a” value [5] was “bind CK2a”.

In the case of acacetin, the “reducing inflammation” value [2] was “reduces the anti-inflammatory activity”.

In the case of `COc1ccc(C2CC(=O)c3c(OC)cc(OC)cc3O2)cc1` (stereo not shown) [dTMF, 4′,5,7-trimethoxyflavanone], the “inhibition of CK2a1 in vitro” value [1] was “inactive”, the pIC50 [1] was under 5.00 and the “reducing inflammation” value [2] was “inactive”. The “suppression” value [2] was “completely inactive”, the “summary of SAR data, activity class” value [2] was “inactive” and the “binding / thermal stabilization of CK2a” value [5] was “do not”.
